According to patent US20250236789A1, “SECOND NEAR-INFRARED ORGANIC FLUORESCENT PROBE, PREPARATION METHOD AND USE THEREOF” (INNER MONGOLIA UNIVERSITY, priority 2024, published 2025):

Legend:
[1] = Emission spectrum test in aqueous solution under excitation of white light; format: physicochemical; conditions: 10 μmol·L^−1, white light excitation
Description: (3) Emission spectrum test of fluorescent probe coated nanoparticles: The emission spectra of HY6CT-NPs, FY6CT-NPs and CY6CT-NPs in aqueous solution were tested with steady-state transient fluorescence spectrometer, at a test concentration of 10 μmol·L^−1.

[2] = NIR-II fluorescence imaging of aqueous solutions in PE tubes under excitation of white light; format: physicochemical; conditions: aqueous solution, 10 μmol·L^−1
Description: Using NIR-II small animal imager, the PE tubes filled with the same concentration of nano-imaging probes were imaged at a test concentration of 10 μmol·L^−1.

emission spectrum under white light (in words) [1]: can hardly be detected | NIR-II fluorescence signal under excitation of white light (in words) [2]: could not detect fluorescence signals
Compound: CC1(C)C(/C=C/C=C/C=C/C=C2\N(CCCCS(=O)(=O)[O-])c3ccc4ccccc4c3C2(C)C)=[N+](CCCCS(=O)(=O)[O-])c2ccc3ccccc3c21.[Na+] [ICG]
